The source of these data is PubChem BioAssay AID2765 (Broad Institute, 2010).

For the test, the system named is MEF A1-2A-BIM cells, caspase 3/7 luminescence, 3 h. Put plainly: inducers of caspase signal in A1-dependent MEFs – cell-based, luminescence, retest, A1 inhibitor project, dose response (AID 2765).

Activity calls are given as the source filed them.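 How the source made its calls: active means half-maximal concentration for the rise in caspase light signal at or below ten times the top tested dose; inconclusive means flat fit between 30% and 70% activity, or unreliable curve fit; inactive means the rest.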

Usually EC50 stands for the midpoint of the concentration-response curve. In the case of `COc1ccccc1-c1cc(C(F)(F)F)nc(S(=O)(=O)CCCC(=O)N2CCOCC2)n1`, the EC50 was 28.7 µM.
With `CCOC(=O)CN(Cc1ccccc1)C(=O)OC(C)(C)C` the figure was > 35 µM (inactive).
Under `C[C@H](NC(=O)OC(C)(C)C)C(=O)NCC1CCC(C(=O)N[C@@H](Cc2ccccc2)C(=O)O)CC1` (stereo partly drawn) stands > 35 µM (inactive); under `COc1ccc(-c2oc(=O)c3cc(OC)c(OC)cc3c2/C=C/c2cccc([N+](=O)[O-])c2)cc1`, > 35 µM (inactive); under `CC1=NOC(=O)/C1=C\c1ccc(-c2cccc(Cl)c2)o1`, > 35 µM (inactive).
With `CN1CCc2c(sc3c2C(=O)NC(c2ccccn2)N3)C1` (stereo not drawn) the figure was > 35 µM (inactive).
Turning to `O=C(COc1ccc(Cl)cc1)NCc1nnc(SCC(=O)Nc2ccccc2F)o1`, the EC50 is > 35 µM (inactive).
`CC(C)(C)C1=CC=C(C(C)(C)C)C(=O)C1=O`: the EC50 is > 35 µM (inactive).
Under `CC1(C)CC(=O)c2cc3c(N)c(C(=O)NCc4ccccc4)sc3nc2C1` stands > 35 µM (inactive).
With `Cn1cnc([N+](=O)[O-])c1S(=O)(=O)c1cccc(Cl)c1` the figure was > 35 µM (inactive); with `COc1ccc(OC)c(CNc2ccc([N+](=O)[O-])cc2C)c1`, > 35 µM (inactive).
With `CCOc1ccc(OCC(=O)N(CCC2=CCCCC2)c2c(N)n(Cc3ccccc3)c(=O)[nH]c2=O)cc1` the figure was 19.1 µM; with `Cc1ccc(-c2nc(NC(=O)c3nn(C)cc3[N+](=O)[O-])sc2C)cc1C`, 6.26 µM.
Turning to `CCOC(=O)C1=NOC(COc2ccccc2C=O)C1` (stereo not drawn), the EC50 is > 35 µM (inactive).
With `CCCNC(=O)C(Cc1ccccc1)NC(=O)Cc1ccccc1` (stereo not drawn) the figure was > 35 µM (inactive); with `CCc1ccc(NC(=O)c2nc(S(=O)(=O)Cc3ccccc3)ncc2Cl)cc1`, > 35 µM (inactive); with `CC(C)CC(NC(=O)c1ccc(Cl)cc1)C(=O)OCC(=O)c1ccc2c(c1)NC(=O)CO2` (stereo not drawn), 5.35 µM.
Under `CCN(CC)CCSc1nnc2c3ccccc3n(Cc3ccccc3)c2n1` stands > 35 µM (inactive); under `CSc1nnc(-c2cc3c(-c4ccccc4)nn(C)c3s2)n1C`, > 35 µM (inactive).
With `O=C(OCn1ncc(Cl)c(Cl)c1=O)c1cccc(C(F)(F)F)c1` the figure was > 35 µM (inactive); with `Cc1cccc(N(C)C(=O)CCS(=O)(=O)c2cccc3nonc23)c1`, > 35 µM (inactive).
As to `CCc1nn(-c2cc(Oc3cccc4ccccc34)nc(-c3ccccc3)n2)c(N)c1C#N`, the EC50 was > 35 µM (inactive).
With `Nc1nc(CSc2nc3ccccc3[nH]2)nc(N2CCOCC2)n1` the figure was > 35 µM (inactive); with `CCn1c(SCC(=O)c2ccccc2)nnc1-c1cc2cc(Br)ccc2o1`, > 35 µM (inactive).
Consider `C=CCOc1c(Br)cc(CNc2ccc3[nH]c(=O)[nH]c3c2)cc1OCC`, for which the EC50 is > 35 µM (inactive).
Under `N[C@@]1(C(=O)O)CC[C@@H](C(=O)O)C1` stands > 35 µM (inactive).
With `Cc1cccc(NC(=S)NCCc2ccc(F)cc2)c1C` the figure was > 35 µM (inactive).
For the molecule `COc1cc(NS(=O)(=O)c2cc(C(=O)NCCc3ccccn3)ccc2OC)cc(OC)c1`, the EC50 is > 35 µM (inactive).
Under `O=C(c1cc2sccc2n1Cc1ccc(F)cc1)N1CCCc2ccccc21` stands > 35 µM (inactive).
Under `O=c1c(Cl)c(Cl)cnn1Cc1ccccc1Cl` stands > 35 µM (inactive); under `COC(=O)c1cc(CNC(=O)CC(C)c2ccccc2)ccc1OC` (stereo not drawn), > 35 µM (inactive).
`O=C(N/N=C\c1ccc(CN(Cc2ccc(Cl)cc2)S(=O)(=O)c2ccccc2)o1)C(=O)Nc1ccc(F)cc1`: the EC50 was > 35 µM (inactive).
With `CCCc1ccc(OCc2ccc(C(=O)N/N=C/c3cccc([N+](=O)[O-])c3)o2)c(OC)c1` the figure was 7.22 µM.
Under `CC(C)NCC(O)c1ccc(NS(C)(=O)=O)cc1` (stereo not drawn) stands > 35 µM (inactive).
With `CCOc1ccc(N2C(=O)CN=C2Nc2ccccc2F)cc1` the figure was > 35 µM (inactive); with `O=C(Nc1ccc(Br)cn1)c1cccc2c1-c1ccccc1C2=O`, > 35 µM (inactive); with `CSc1ccccc1NC(=O)CCn1c(=O)sc2ccccc21`, > 35 µM (inactive).
Take `COc1ccc(S(=O)(=O)Nc2ccccc2C(=O)NC2CC2)cc1NC(C)=O`: the EC50 was > 35 µM (inactive).
With `COC(=O)C1=C(C)N(Cc2ccccc2)C(=NCc2cc(OC)c(OC)c(OC)c2)N[C@H]1c1ccccc1` the figure was > 35 µM (inactive); with `CCCCCCCCC(=O)NNC(=O)c1c(O)c2ccccc2n(CCC)c1=O`, > 35 µM (inactive).
Under `CC(=O)Nc1ccc(/C(C)=N/Nc2nc(Nc3ccccc3)nc(N3CCOCC3)n2)cc1` stands > 35 µM (inactive); under `COc1ccc(CCNC(=O)COC(=O)c2cnc(Cl)c(Cl)c2)cc1`, > 35 µM (inactive); under `COC(=O)C1CSC(c2ccc(Cl)cc2)N1C(=O)c1ccccc1` (stereo not drawn), > 35 µM (inactive).
Under `N#C/C(=C\c1ccc(N2CCOCC2)o1)c1ccccc1` stands > 35 µM (inactive).
Consider `O=C(C1=NN[C@@H]2C(=O)N(Cc3ccccc3)C(=O)[C@H]12)c1ccc(F)cc1`, for which the EC50 was > 35 µM (inactive).
With `Cc1ccc(NC(=O)CCN2CC(C)OC(C)C2)cc1C` (stereo not drawn) the figure was > 35 µM (inactive); with `Cc1ccccc1N=C1NC(=O)C(CO)(CO)S1`, > 35 µM (inactive).
With `COCCCNC(=O)c1cccc(S(=O)(=O)N2CC3(C)CC2CC(C)(C)C3)c1` (stereo not drawn) the figure was > 35 µM (inactive); with `COc1ccc(C(=O)Nc2ccc(NC(C)=O)cc2)cc1S(=O)(=O)N1CCCCC1C` (stereo not drawn), > 35 µM (inactive).
Under `COc1ccc(CNCc2ccc([N+](=O)[O-])cc2)cc1OC` stands > 35 µM (inactive); under `Cc1ccc(NC(=O)COC(=O)CCc2c(C)nc3ncnn3c2C)cc1C`, > 35 µM (inactive).
For the molecule `CC(=O)Nc1ccc(SC[C@H](Cc2ccccc2)N2CC[C@@H](C(C)(C)C)CCC2=O)cc1`, the EC50 is > 35 µM (inactive).
With `CC(=O)Nc1ccc(S(=O)(=O)N2CCCC3CCCCC32)cc1` (stereo not drawn) the figure was > 35 µM (inactive); with `CCN1CCN(CC(=O)Nc2cc(F)ccc2C)CC1`, > 35 µM (inactive).
For `CCc1cc(-c2[nH]ncc2-c2ccc(OC)cc2)c(O)cc1O`, the EC50 was > 35 µM (inactive).
`CN1CCN(CCNC(=O)Nc2ccc(Cl)cc2)CC1`: the EC50 is > 35 µM (inactive).
Under `CCOC(=O)CCCNS(=O)(=O)c1c(C)ccc2nsnc12` stands > 35 µM (inactive); under `CCOc1ccccc1NC(=O)c1nc(S(=O)(=O)Cc2cccc(C)c2)ncc1Cl`, > 35 µM (inactive); under `O=C(NC[C@H]1CCCO1)c1cccc2c1C(=O)c1ccc(-c3ccc(F)cc3OCc3ccccc3)cc1S2(=O)=O`, > 35 µM (inactive).
With `CCOC(=O)CSCC(=O)N1N=C(c2cccs2)CC1c1ccc(F)cc1` (stereo not drawn) the figure was > 35 µM (inactive); with `O=[N+]([O-])c1ccccc1S(=O)(=O)N1CCN(S(=O)(=O)c2ccc3c(c2)OCCO3)CC1`, > 35 µM (inactive); with `Cc1cccc[n+]1CC(=O)c1ccccc1`, > 35 µM (inactive).
Under `Cc1c(C(=O)O)cccc1N1C(=O)Nc2ccccc2N1O` stands > 35 µM (inactive); under `O=C(NCC1CCCO1)C1CCN(S(=O)(=O)c2ccc(Br)cc2)CC1` (stereo not drawn), > 35 µM (inactive); under `CCN(CC)C(=S)SCC(=O)Nc1ccc(F)cc1`, > 35 µM (inactive).
For the molecule `O=C1C(=O)N(C/C=C/c2ccccc2)c2ccccc21`, the EC50 was > 35 µM (inactive).
Under `CCN(CC)C(=O)Oc1ccc(Br)c2ccccc12` stands > 35 µM (inactive); under `S=C(Nc1ccccc1)N1N=C(c2cccs2)CC1c1cccs1` (stereo not drawn), > 35 µM (inactive).
